Test results as given in patent US20210205253A1, “Use Of Stearic Acid For Preventing Or Treating Pulmonary Fibrosis” (THE ASAN FOUNDATION, priority 2018, published 2021).

Legend:
[1] = test system: pulmonary fibrosis induced by bleomycin; test: Combined stearic acid and pirfenidone in bleomycin pulmonary fibrosis animal model; type: in vivo, mice (C57BL/6J); conditions: 3 mg/kg stearic acid, 300 mg/kg pirfenidone oral once every 2 days for 2 weeks; versus bleomycin group
Method: In addition to the results of the above examples, the present inventors sought to confirm the anti-fibrotic effect by the combined treatment of stearic acid and pirfenidone in a pulmonary fibrosis animal model. For this purpose, 8-week-old mice (C57BL/6J) were anesthetized with 50 mg/kg […] and 5 mg/kg Rompun, followed by injection of bleomycin and saline into the trachea. From 7 days after administration of bleomycin, 3 mg/kg stearic acid, 300 mg/kg pirfenidone or the two drugs were orally administered at the same time once every 2 days for 2 weeks, and changes in mouse body weight were measured up to 21 days after administration of bleomycin.

[2] = test system: human pulmonary epithelial cells (BEAS-2B); test: Cell viability (MTT) of human pulmonary epithelial cells; type: cell-based; conditions: stearic acid 40 uM/mL + TGF-β 5 ng/mL, 24 h, versus TGF-β alone
Method: After epithelial cells and fibroblasts were aliquoted into 6-well plates at 2×10^4 cells/well and a stabilization time was imparted for 24 hours, and 15 hours after deficiency, cells were treated with stearic acid (40 uM/mL), TGF-β (5 ng/mL), and stearic acid (40 uM/mL)+TGF-β (5 ng/mL) in this order. After the cells were cultured in an incubator for 24 hours after the treatment, the next-step experiment was performed.
After a 24-hour cell stimulation by the method in Example 1-3 was completed, the medium of epithelial cells and fibroblasts was replaced with a general culture medium, 10 μl of an MTT solution (20 mg/ml) was further added, and then the outside of the plate was wrapped with aluminum foil and cells were cultured in an incubator for 2 hours. […] After 2 hours, cell activation was measured at an absorbance value of 595 nm using an ELISA reader.
For this purpose, after each culture (BEGM(Lonza) in the case of MRC-5, and BMEM (ATCC) in the case of BEAS-2B) of human pulmonary fibroblasts (MRC-5; ATCC® CCL171™) and human pulmonary epithelial cells (BEAS-2B; ATCC® CRL9609™) was treated with stearic acid (40 uM/mL), TGF-β (5 ng/mL; Sigma), or stearic acid (40 uM/mL)+TGF-β (5 ng/mL) by the method described in Example 1-3 for 24 hours, cell viability was measured by the method in Example 1-4. […]

[3] = test system: primary fibroblasts isolated from lung tissues of patients with idiopathic pulmonary fibrosis; test: Collagen 1 and α-SMA expression in primary fibroblasts from IPF patients; type: cell-based, human; conditions: 80 μM stearic acid
Method: In addition to the results in the Examples, the present inventors sought to verify the anti-fibrotic effect of stearic acid on fibroblasts derived from lung tissues in patients with idiopathic pulmonary fibrosis (IPF). For this purpose, after primary fibroblasts were isolated from lung tissues of the patients, and then the cells were treated with stearic acid at various concentrations for 24 hours, the expression levels of collagen 1 and α-SMA were measured (FIGS. 10A and 10B), fibroblasts obtained from 4 patients were treated with 80 μM stearic acid for 24 hours, and then the expression levels of collagen 1 and α-SMA were measured (FIG. 10C). In addition, after the expression of collagen type 1 and α-SMA was increased by inducing the fibrosis caused by TGF-β1 in patient-derived fibroblasts, the anti-fibrotic effect of stearic acid was verified (FIGS. 10D and 10E).

[4] = primary fibroblasts from 4 patients with IPF, 24 h (FIG. 10C)

In the case of CCCCCCCCCCCCCCCCCC(=O)O [stearic acid], the level of hydroxyproline [1] is reported as “partially reduced”, the “cell viability of pulmonary epithelial cells” value [2] is reported as “cell viability increased” and the “basal level expression of collagen 1” value ([3]; 24 h (FIGS. 10A, 10B)) is reported as “significantly reduced”. The “basal level expression of α-SMA” value ([3]; 24 h (FIGS. 10A, 10B)) was “significantly reduced”, the “expression of collagen 1” value ([3]; fibrosis induced by TGF-β1) was “significantly reduced” and the “expression of α-SMA” value ([3]; fibrosis induced by TGF-β1) was “significantly reduced”. The “basal level expression of collagen 1” value [3, 4] was “significantly reduced” and the “basal level expression of α-SMA” value [3, 4] was “significantly reduced”.
